Here are results for 13 molecules from ChEMBL document CHEMBL1142000, “(R)-2-(4-Phenylbutyl)dihydrobenzofuran derivatives as melatoninergic agents” (Bioorg Med Chem Lett, 2005).

Assay [1] deals with Melatonin receptor type 1A (Homo sapiens, UniProt P48039). The assay is described as follows: Binding affinity against Melatonin receptor type 1A stably expressed in NIH3T3 cells using 2-[125I]iodomelatonin. The format is cell-based.
For assay [2], the target named is T1, Melatonin receptor type 1B (Homo sapiens, UniProt P49286).
T1 sequence (P49286 whole entry): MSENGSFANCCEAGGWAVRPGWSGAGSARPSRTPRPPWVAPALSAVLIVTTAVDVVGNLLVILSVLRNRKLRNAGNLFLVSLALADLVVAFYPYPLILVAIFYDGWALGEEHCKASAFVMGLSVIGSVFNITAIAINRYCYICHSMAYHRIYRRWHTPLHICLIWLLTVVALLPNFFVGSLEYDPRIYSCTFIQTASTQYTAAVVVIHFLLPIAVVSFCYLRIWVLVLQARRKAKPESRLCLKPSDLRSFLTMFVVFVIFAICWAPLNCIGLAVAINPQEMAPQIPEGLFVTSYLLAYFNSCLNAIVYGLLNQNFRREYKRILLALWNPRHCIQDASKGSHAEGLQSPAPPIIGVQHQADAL
The assay is described as follows: Binding affinity against Melatonin receptor type 1B stably expressed in NIH3T3 cells using 2-[125I]iodomelatonin. The format is cell-based.

Chain of Melatonin receptor type 1A (P48039 whole entry): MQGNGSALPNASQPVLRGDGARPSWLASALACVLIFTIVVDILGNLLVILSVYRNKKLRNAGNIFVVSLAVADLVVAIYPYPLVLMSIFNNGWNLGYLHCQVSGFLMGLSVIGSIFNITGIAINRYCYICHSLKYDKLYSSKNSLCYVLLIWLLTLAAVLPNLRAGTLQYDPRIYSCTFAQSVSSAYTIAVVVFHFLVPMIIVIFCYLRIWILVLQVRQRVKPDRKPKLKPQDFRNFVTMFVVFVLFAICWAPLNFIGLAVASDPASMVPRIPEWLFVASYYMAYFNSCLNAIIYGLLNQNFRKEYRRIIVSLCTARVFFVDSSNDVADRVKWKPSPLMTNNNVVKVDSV

Usually Ki stands for the equilibrium dissociation constant of an inhibitor or competing ligand from its target. The low end stands for a stronger hold on the target, the high end for a looser hold on the target. As to `CCCC(=O)NC[C@@H]1C[C@H]1c1cccc2c1C[C@@H](CCCCc1ccccc1)O2`, the Ki in assay [1] and in assay [2] was 2 nM throughout.
On to `CCCC(=O)NCCCc1cccc2c1C[C@@H](CCCCc1ccccc1)O2`, for which the figures for the Ki in assay [1] and in assay [2] were 2 nM and 30 nM, respectively.
The matching figures for `CC(=O)NC[C@@H]1C[C@H]1c1cccc2c1C[C@@H](CCCCc1ccccc1)O2`: 1 nM and 2 nM.
With `O=C(NC[C@@H]1C[C@H]1c1cccc2c1C[C@@H](CCCCc1ccccc1)O2)C1CC1`, the values for the Ki in assay [1] and in assay [2] were 1 nM and 5 nM, respectively.
For `CC(C)C(=O)NC[C@@H]1C[C@H]1c1cccc2c1C[C@@H](CCCCc1ccccc1)O2` the same measures were 6 nM and 90 nM.
The matching figures for `CCC(=O)NC[C@@H]1C[C@H]1c1cccc2c1C[C@@H](CCCCc1ccccc1)O2`: 1 nM and 2 nM.
Turning to `CCNC(=O)NCCCc1cccc2c1C[C@@H](CCCCc1ccccc1)O2`, the Ki is 9 nM in assay [1] and 40 nM in assay [2].
Regarding `CCC(=O)NCCCc1cccc2c1C[C@@H](CCCCc1ccccc1)O2`, the Ki in assay [1] worked out at 1 nM; in assay [2], 20 nM.
Turning to `CCNC(=O)NC[C@@H]1C[C@H]1c1c(Cl)ccc2c1C[C@@H](CCCCc1ccccc1)O2`, the figures for the Ki in assay [1] and in assay [2] were 60 nM and 90 nM, respectively.
Turning to `CCNC(=O)NC[C@@H]1C[C@H]1c1cccc2c1C[C@@H](CCCCc1ccccc1)O2`, the Ki was 9 nM in assay [1] and 40 nM in assay [2].
For the molecule `O=C(NCCCc1cccc2c1C[C@@H](CCCCc1ccccc1)O2)C1CC1`, the results for the Ki in assay [1] and in assay [2] were 2 nM and 30 nM, respectively.
For `CC(C)C(=O)NCCCc1cccc2c1C[C@@H](CCCCc1ccccc1)O2` the same measures were 4 nM and 40 nM.
For `CC(=O)NCCCc1cccc2c1C[C@@H](CCCCc1ccccc1)O2` the same measures were 4 nM and 8 nM.
